Measured values from the METLIN SMRT retention time set (Domingo-Almenara et al. 2019).

Experiment: gradient 5% acetonitrile 3 min, to 50% in 2 min, to 85% in 15 min, held 3 min, 100 µL/min
Settings: column: Zorbax Extend-C18 2.1 x 50 mm; eluents: water / acetonitrile, 0.1% formic acid
Summary of the method: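 In both positive and negative ionization mode, a quadrupole time-of-flight mass spectrometer coupled to HPLC analyzed pure standards run in mixtures of ~100 molecules. The Zorbax Extend-C18 column (2.1 × 50 mm, 1.8 μm) was operated at 100 μL/min with water and acetonitrile, each containing 0.1% formic acid. The dead volume was 40 μL and the dwell volume 900 μL. Retention time came from adduct peaks that were computationally picked and individually inspected by hand.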

RP-LC retention time	Structure (SMILES)
1070 s	CCc1cccc(C)c1Nc1c(-c2ccc(SC)cc2)nc2cnccn12
870 s	CCOc1ccccc1NC(=O)N1CCCC1c1cc(C)on1 (centres undefined)
802 s	COc1ccc(NC(=O)Cn2c(=O)n(-c3ccc(C)cc3)c3ncccc32)cc1OC
827 s	Cn1ccc2ccn(CC(=O)Nc3cccc(Br)c3)c(=O)c21
997 s	CCn1cc(C(=O)NCc2ccc(SC)cc2)c(=O)c2ccc(C)nc21
822 s	CCC(C)Nc1nc(-c2ccc(Cl)cc2)nc2ccccc12 (centres undefined)
824 s	CCC1Oc2ccc(S(=O)(=O)N3CCC(C(=O)NCc4ccccc4)CC3)cc2NC1=O (centres undefined)
859 s	Cc1nn(Cc2ccc(C(=O)NC3CC3)cc2)c(C)c1S(=O)(=O)N1CCC(C)CC1
1170 s	C=CCn1c(=O)c2ccccc2n(Cc2nc(-c3ccc(F)c(Br)c3)no2)c1=O
795 s	O=C(Cn1cccc1-c1nc(-c2ccc(Cl)cc2)cs1)NCc1ccccn1
909 s	Cc1ccc(C(=O)Nc2cnn(-c3ncncc3N3CCC(C)CC3)c2)s1
842 s	O=c1n(CCOc2ccccc2)nc2ccc(S(=O)(=O)N3CCCC3)cn12
764 s	Cc1ccc(C)c(CNC(=O)Cn2cnc3onc(C)c3c2=O)c1
629 s	COc1ccccc1CNC(=O)Cn1nc2cc(-c3ccccn3)nc(C)n2c1=O
998 s	CCCS(=O)(=O)c1nc2ccc(NS(=O)(=O)c3cc(C)cc(C)c3)cc2s1
809 s	CCc1nc2oc3cc(OC)ccc3c(=O)c2c(=O)n1-c1ccc(C)cc1
1300 s	Cc1ccccc1-c1noc(CSc2nc3cc4c(cc3c(=O)n2Cc2ccccc2)OCO4)n1
859 s	Cc1ccnc(Nc2nc(-c3ccc(C)cc3C)cs2)c1
1080 s	Cc1ccc(Nc2c(-c3ccc(Cl)cc3)nc3cnccn23)c(C)c1
987 s	Cc1ccc(C)c(NC(=O)N2CCc3nc(-c4ccc(F)cc4)ncc3C2)c1
836 s	COc1cc(OC)c(NC(=O)NCCCn2c(C(F)(F)F)nc3cccnc32)cc1Cl
716 s	COc1ccc(OC)c(NC(=O)NC2CCN(c3ccc(F)cc3)C2=O)c1 (centres undefined)
906 s	O=c1ccn(-c2cccc(F)c2)nc1-c1nc(-c2cccc(F)c2)no1
907 s	CC(C)NC(=O)N1CCCC(c2cccc(C(=O)NC(C)c3ccc(F)cc3)c2)C1 (centres undefined)
738 s	CC(C(=O)N1CCN(c2ccccn2)CC1)n1ccc2cc(S(=O)(=O)N3CCCCCC3)ccc21 (centres undefined)

RP-LC retention time	Structure (SMILES)
838 s	CCn1c(=O)c(N2CCC(NC(=O)Nc3ccc4c(c3)OCCO4)CC2)nc2ccccc21
696 s	CC(C)n1cc2cc(C(=O)N3CCN(Cc4ccc5c(c4)OCO5)CC3)sc2c1
748 s	Cc1cc2[nH]c(C(=O)Nc3cccc(Cl)c3C)c(CN3CCOCC3)c2s1
1030 s	O=C1N(c2ccc(F)cc2)c2ncccc2S(=O)(=O)N1Cc1cccc(F)c1
733 s	Cc1ccc(C(=O)NC2CCN(c3cc(-c4cccs4)[nH]n3)C2)cc1 (centres undefined)
766 s	O=C(Cn1nc2ccc(C(=O)NCc3ccccc3)cn2c1=O)NC1CCc2ccccc21 (centres undefined)
879 s	O=C(NCCc1c[nH]c2ccc(Cl)cc12)Nc1ccccc1
973 s	CCCS(=O)(=O)c1nc2ccc(NS(=O)(=O)c3ccc(F)cc3Cl)cc2s1
1280 s	Cc1ccc(C)c(N2CCN(Cc3nc(-c4ccc(N5CCCC(C)C5)nc4)no3)CC2)c1 (centres undefined)
667 s	COc1ccc(OC)c(NC(=O)C2CCCN(c3nnc4ccccn34)C2)c1 (centres undefined)
1040 s	CCC(C)NC(=O)c1nnn(Cc2cccc(Cl)c2)c1-n1cccc1 (centres undefined)
738 s	COCCN1C(=O)Cc2ccccc2C1C(=O)NCc1cc(F)ccc1F (centres undefined)
709 s	CCNC(=O)C1CCCN(c2nc3ncn(CC(=O)Nc4ccc(Cl)cc4F)c(=O)c3s2)C1 (centres undefined)
928 s	CC(C)CCn1c(=O)oc2ccccc21
960 s	Cc1cc(OCC(=O)Nc2ccc3c(c2)OCO3)nc(-c2ccc(F)cc2)n1
743 s	COC(=O)c1cccc(NC(=O)CSc2nccc(N3CCN(c4cccc(OC)c4)CC3)n2)c1
725 s	COc1ccc(C(=O)N2CCC(C(=O)NCCc3csc(-c4cccs4)n3)CC2)cc1OC
837 s	Cc1cc2c(c(=O)n(-c3ccccc3)c(=O)n2CC(=O)Nc2cccc(F)c2)n1C
968 s	CCCc1nc(-c2cc3ccc(C)cc3nc2NC2CCCC2)no1
768 s	Cc1ccc(NC(=O)c2ccccc2C(=O)O)cc1Br
745 s	CCC(=O)N1CCc2cc(N3CC(C(=O)NCc4cccc(C)c4)CC3=O)ccc21 (centres undefined)
891 s	COc1ccc(NC(=O)Cn2c(=O)n(-c3ccc(C)cc3)c(=O)c3c2cc(C)n3C)cc1Cl
912 s	Cc1ccc(F)c(NS(=O)(=O)c2cn(C(C)C)c3ncccc23)c1
1190 s	CCCN1C(=O)c2cc(S(=O)(=O)N(C)Cc3ccccc3)ccc2Oc2cccnc21
821 s	COc1cccc(-n2ccn3cc(-c4ccc(F)cc4)nc3c2=O)c1

The next lines start with the compound.

Structure (SMILES)	RP-LC retention time
CCOc1ccc(N2CC(c3nc(-c4cc(OC)c(OC)c(OC)c4)no3)CC2=O)cc1 (centres undefined)	954 s
Cn1cc(C(=O)N2CCC(c3noc(-c4ccccc4)n3)C2)cn1 (centres undefined)	712 s
CCC(C)[C@H](NC(=O)N1C[C@H]2C[C@@H](C1)c1cccc(=O)n1C2)C(=O)OC (some centres undefined)	624 s
CCCN(CC1CCOC1)C(=O)C1CCCCC1 (centres undefined)	827 s
CCOC(=O)N1CCC(NC(=O)CCC2CCN(c3cc(NC4CC4)ncn3)CC2)CC1	619 s
COc1ccc(-c2nn3c(COc4ccc(Br)cc4)nnc3s2)cc1OC	980 s
COC(=O)c1c(C)[nH]c(C(=O)N2CCCC(C(=O)NCCCN3CCCCC3)C2)c1C (centres undefined)	596 s
Fc1ccc(-c2ccc(CNCC3CCNCC3)o2)cc1Cl	582 s
Cc1noc(C2CN(C(=O)Nc3ccc(F)cc3)CC23CCOCC3)n1 (centres undefined)	723 s
Cc1ccc(NC(=O)CSc2cc(N3CCCCC3)ncn2)cc1Cl	1050 s
Cc1noc(C2CN(C(=O)c3n[nH]c4ccccc34)CC23CCN(C)CC3)n1 (centres undefined)	1010 s
Cc1ccc(-n2nc(N3CCCC(C(=O)NCCC4=CCCCC4)C3)ccc2=O)cc1Cl (centres undefined)	1060 s
Cc1nc2cc3c(cc2n1CC(=O)Nc1ccc2c(c1)OCCO2)OCCO3	632 s
CN(CC(=O)N1CCN(c2ccccc2F)CC1)S(=O)(=O)c1c[nH]c(C(=O)N2CCCC2)c1	752 s
COc1ccc(-c2noc(-c3ccc(NC(=O)c4ccc(Br)o4)cc3)n2)cc1	1190 s
CC1CCN(C(=O)C2=NNc3ccccc3S2(=O)=O)CC1	740 s
CCOc1ccc(S(=O)(=O)N2CCCC(C(=O)NCC3CCCO3)C2)cc1 (centres undefined)	788 s
O=C(Nc1ccccc1)N1CCC2(CC1)N(C1CCCC1)C(=O)CS2=O (centres undefined)	692 s
CCC(=O)N1CCc2cc(-c3ccc(C(=O)NCCN4CCN(CC)CC4)cc3)ccc21	604 s
CSc1ccc(NC(=O)N2CCc3nc[nH]c3C2)cc1	590 s

Structure (SMILES)	RP-LC retention time
O=C(Cn1cccc1-c1nnc(-c2ccccc2)o1)N1CCN(C2CCCCC2)CC1	687 s
CCCNC(=O)CC1=C2CCCCC2NC1=O (centres undefined)	618 s
O=C(c1ccc[nH]1)N1CCC2(CC1)NC(=O)N(Cc1ccc(Cl)cc1)C2=O	761 s
CCC1CN(C(=O)N2CCC(C(=O)NCCc3ccco3)CC2)c2ccccc2O1 (centres undefined)	852 s
CC1=NS(=O)(=O)N(C)C=C1C(=O)OCc1nc(-c2ccccc2Cl)no1	954 s
O=C(C1CC1)N1CCC(c2noc(-c3cnccn3)n2)C1 (centres undefined)	621 s
O=C(Nc1ccccc1)N1CCCC(c2nnnn2-c2ccccc2)C1 (centres undefined)	820 s
COc1ccc(C2(C(=O)N3CCCC(c4nnnn4C)C3)CC2)cc1 (centres undefined)	706 s
Cc1nc(-c2csc(S(=O)(=O)N3CCC(C(=O)N4CCC(C)CC4)CC3)c2)no1	903 s
O=C(NC(=O)N1CCN(Cc2ccccc2)CC1)c1ccccc1	549 s
Cc1sc2cc(C(=O)NC3CC3)[nH]c2c1CN1CCCCC1	596 s
CCOC(=O)CCNC(=O)N1CCC(CC2CC2)(NS(C)(=O)=O)CC1	672 s
CN1Cc2ccccc2-n2ccnc2C12CCN(C(=O)c1ccc(F)c(F)c1)CC2	619 s
CCN1c2ccccc2C(=O)NC12CCN(C(=O)c1cc(OC)c(OC)c(OC)c1)CC2	714 s
CCCN1C(=O)C2(NCCc3c2[nH]c2ccc(OC)cc32)c2cc(Br)ccc21 (centres undefined)	729 s
CN(CCc1ccc(Cl)c(Cl)c1)[C@@H]1CCCC[C@@H]1N1CCCC1	956 s
CCOC(=O)CNC(=O)N(C)CCc1noc(-c2ccc(Cl)cc2)n1	789 s
COc1ccc(C(=O)N2CC3CN(S(=O)(=O)c4ccc(OC)cc4)CC(C2)O3)cc1	769 s
Cn1nc(C(=O)N2CCCCC2)c2c1CCN(C(=O)CCC(=O)NCCN1CCCC1)C2	578 s
